This is an account of results in US12545653B2, “Compound as PPAR agonist and application thereof” (USA Elixiria Biotech Inc., priority 2019, dated 2026).

The nature of series [1]: Blood-brain barrier permeability: brain concentration after a single injection. The class given is in vivo, rat. Particulars: for AUC(0-t): male, rat, in vivo, ip, 10 mg/kg. On the procedure:
The blood-brain barrier permeability of carbonyl-containing cyclic compounds is determined in in vivo studies. Healthy male rats used in the study were divided into compound group and control group. […] The brains were dissected, heated immediately at boiling water for 2 min, homogenized with methanol, and centrifuged. The upper layer was collected and dried under vacuum to remove solvents, and then resuspended in methanol. The above samples are filtered through a 0.45 micron nylon membrane, and then 20 microL of sample were load into a high-performance liquid chromatographic (HPLC) system (Model LC-16P, Shimadzu, Japan) to perform quantitative analysis.

The subject of another series is HEK 293T cells. Description: Inhibition of reactive oxygen species production (ROS-Glo H2O2 Assay). The class given is cell-based, human. Particulars: 18 hours incubation; for inhibition of active oxygen production (up to), compared to the DMSO control: 0-30 micromole/L; for EC50: Homo sapiens, HEK-293T, 18 h. As for the experimental part: Mitochondrial reactive oxygen species-induced oxidative stress is the source of many diseases. This experiment is used to test whether the carbonyl-containing cyclic compounds provided by the present invention can reduce the production of reactive oxygen species. HEK 293T cells were divided into 96-well plates at 5000 cells per well, cultured in a 37° C. carbon dioxide incubator with serum-free Duchenne's Modified Eagle's Medium (DMEM) for 6 hours, and then representatives for compounds listed in Table 2 and 3 were added to a final concentration of 0, 0.1, 0.3, 1, 3, 10, 30 micromole/L, with each concentration in triplicate. After 18 hours of incubation, the reactive oxygen species detection kit (ROS-Glo™ H2O2 Assay) and the GloMax microplate fluorescence detector (Promega, USA) were used to detect reactive oxygen species production. At the same time, pioglitazone was used as a control. The amount of fluorescence is positively related to the production of reactive oxygen species. A three-parameter Sigmoid function curve was used to fit the obtained data. The abscissa represents the logarithmic value of the concentration, and the ordinate represents the percentage of reduced reactive oxygen species production relative to those of the control. Then EC50 value was calculated with professional software.

The next series concerns klotho gene promoter. Description: In vitro transcriptional activity of klotho gene (KL-Luc-3 luciferase cell line). Particulars: 16 h, KL-Luc-3 cells, 16 hours incubation. The class given is cell-based. The source says: The activities of these carbonyl-containing cyclic compounds are indicated by the increased expression of klotho gene. […] The present invention retains the DNA fragment of the klotho gene promoter, but replaces the DNA sequence of the coding region of the klotho gene with those of luciferase, so that the degree of activation of the klotho gene promoter and the expression of the klotho gene will be sensitively determined by detecting the luciferase luminescence signal.
Klotho is an important downstream gene of PPARγ pathway. The following experiments tested the properties of the compounds in Table 2 and 3 to activate the klotho gene in vitro. First, a stable cell line, KL-Luc, was constructed. The klotho gene carried by the cell line retained the DNA sequence of klotho gene promoter, but the coding sequence of the klotho gene was replaced with luciferase. KL-Luc fragment includes a promoter sequence of the klotho gene (a DNA region of 18,000 base pairs in length upstream of the transcription start site of the gene) and a luciferase-encoding sequence. To construct the KL-Luc sequence containing lentiviral vector, the KL-Luc fragment was cloned into the pDONR vector using BP recombinase, so that the target fragment had attL recombination sites on both sides. Then the KL-Luc fragment was transferred from the pDONR vector to a lentiviral vector (without exogenous promoter) pLenti6/BLOCK-IT-DEST. The constructed lentiviral vector of the target fragment was then transfected into HEK293T cells, and then the KL-Luc gene lentiviral expression vector and the […] were co-transfected into HEK293T cells to perform lentiviral packaging. The virus was harvested, and virus titer was calculated. And the lentivirus was used to infect target cells. The stable strains were screened by adding drugs. Finally, monoclonal cell lines were selected from polyclonal cells by cell cloning. The effective luciferase expression of each monoclonal cell line was determined by quantitative polymerase chain reaction (qPCR). The inventors chose a third monoclonal cell line (KL-Luc-3) to continue the compound screening. The compounds of interest were the compounds in Table 2 and 3. At the same time, rosiglitazone and pioglitazone were used as a control. KL-Luc-3 cells were divided into 96-well plates at 5000 cells in 80 microL per well, cultured in a 37° C. carbon dioxide incubator with serum-free Duchenne's Modified Eagle's Medium (DMEM) for 6 hours, and then the compounds were added to a final concentration of 0, 0.1, 0.3, 1, 3, 10, 30 micromole/L, with each concentration in triplicate. After 16 hours of incubation, the SteadyLite (PerkinElmer, Waltham, MA) and the GloMax Microplate Luminometer (Promega, USA) were used for quantitation of luciferase activity. The amount of luminescence emitted from each well is positively related to the transcriptional activity of the klotho promoter. A three-parameter Sigmoid function curve was used to fit the obtained data. The abscissa represents the logarithmic value of the concentration, and the ordinate represents the percentage of the activity relative to those of the control. […] In Statistical analysis, the coefficient of variation is used to measure the robustness and repeatability of the experiment. […] The difference is significant with P<0.05. EC50 is a parameter of its activity. The lower the EC50 value, the higher the activity of corresponding compound.

The target in a further series is T1, PPARγ (Homo sapiens, UniProt P37231).
T1 construct: expressed in transfected cells; host or cells: HEK 293 T cells
T1 sequence (P37231 1-505): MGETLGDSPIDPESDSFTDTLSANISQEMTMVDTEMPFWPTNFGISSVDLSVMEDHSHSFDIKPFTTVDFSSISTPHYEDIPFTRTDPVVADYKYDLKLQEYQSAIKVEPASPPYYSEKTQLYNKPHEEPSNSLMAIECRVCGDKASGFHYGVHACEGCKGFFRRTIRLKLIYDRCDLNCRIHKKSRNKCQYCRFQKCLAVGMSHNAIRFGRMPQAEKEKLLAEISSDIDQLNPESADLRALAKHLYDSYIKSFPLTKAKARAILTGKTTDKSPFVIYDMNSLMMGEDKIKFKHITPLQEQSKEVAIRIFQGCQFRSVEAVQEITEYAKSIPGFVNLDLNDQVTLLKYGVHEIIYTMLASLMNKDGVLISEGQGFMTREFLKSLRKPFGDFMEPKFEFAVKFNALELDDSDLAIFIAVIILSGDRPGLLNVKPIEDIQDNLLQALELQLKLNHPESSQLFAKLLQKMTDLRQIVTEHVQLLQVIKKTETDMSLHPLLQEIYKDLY
Kind of series: In vitro transcriptional activity of PPARγ gene (PPRE-luciferase reporter, HEK 293 T cells). It counts as cell-based. Particulars: HEK 293 T cells transfected with PPARγ expression and PPRE-luc plasmids, 21 hours; read-out: EC50 of PPARγ gene activation. An excerpt: In this experiment, the PPARγ gene was used as target gene to detect the in vitro transcription activity of the compounds. The compounds of interest were detected was first dissolved with dimethyl sulfoxide (DMSO). […] First two plasmids were constructed: PPARγ protein expression plasmid and luciferase reporter plasmid. They are both from the lentiviral plasmid pLV-CMVIE-ZsGreen-Puro, whose DNA sequence contains the cytomegalovirus immediate early (CMVie) promoter, ZsGreen and Puro dual reporter. The PPARγ expression plasmid pLV-CMVIE-PPAR[…]-ZsGreen-Puro was constructed by cloning full-length coding sequences of the pertinent receptors into pHBLV-CMVIE-ZsGreen-Puro vector. To construct the luciferase (luc) reporter plasmid pLV-PPRE-luc-ZsGreen-Puro, the CMVie promoter in plasmid pHBLV-CMVIE-ZsGreenPuro was first replaced by a peroxisome proliferator responsive element (PPRE) containing fragments comprised the nucleotide sequence 50-[…], repeated four times in tandem, to generate a new plasmid, at a multiple cloning site of which the luc gene was then inserted. […] The compounds used for screening are representatives for compounds listed in Table 2, and Tables 3 of the present invention. […] Cells were distributed in 10-cm tissue culture plates at a density of 5.5 million cells per plate, and then transfected with the luciferase reporter plasmid (6 nanogram/plate) and the PPARγ expression plasmid (18 nanogram/plate). Cells were cultured for 6 hours. […] Then the cells were distributed in 96-well plates at a density of 20,000 cells per well. After incubation for 6 h, compounds or control with different concentration were placed into each well, resulting in the finical concentration of […] with each concentration in triplicate. Twenty-one hours later, promoter activation was detected by the addition of SteadyLite (PerkinElmer, Waltham, MA) and GloMax 96 Microplate Luminometer (Promega, Madison, WI). The amount of Luminometer emitted from each well is positively correlated with the expression of PPARγ gene. A three-parameter Sigmoid function curve was used to fit the obtained data. The abscissa represents the logarithmic value of the concentration, and the ordinate represents the percentage of PPARγ gene activation relative to those of the control. […] In Statistical analysis, the coefficient of variation is used to measure the robustness and repeatability of the experiment. […] The difference is significant with P<0.05. EC50 is a parameter of its activity.
Background: In a reporter assay the amount or activity of a reporter protein is the signal.

The subject of series [2] is dIoN-CCI rat model of trigeminal neuropathic pain. Description: Trigeminal neuralgia model (dIoN-CCI), Von Frey mechanical threshold. Particulars: dIoN-CCI rats.
Text: A common rat model of trigeminal neuralgia is a chronic compression injury model (CCI) caused by ligation of the infraorbital nerve (IoN). In the present study, an improved rat model of trigeminal neuropathic pain was used, in which CCI is induced by ligation of distal segment of IoN (dIoN). Wild type male Sprague-Dawley rats with body weight 250 to 260 grams underwent dIoN-CCI surgery experiments. The mechanical threshold of pain in rats without surgery experiments will exceed 6 grams. If the dIoN-CCI surgery is successful, it will reduce the pain threshold to less than 2 grams.
The mice were divided into the following 11 groups with 4 to 5 mice in each group. The formulation used for transdermal treatment is cream. […] The compound administration of each group starts on the third day after successful dIoN-CCI surgery. […] The method for detecting rat facial hypersensitivity is performed using Von Frey filaments. An analysis of variance (ANOVA) and Dunnett post hoc comparison test are used to compare the significance of the differences between different groups of data. The difference is significant with P<0.05.
The test system of series [3] is MPTP-HCl Parkinson's disease model mice. Description: Parkinson's disease model (MPTP-HCl), beam traversal test. Particulars: MPTP-HCl/probenecid mice, 5 mg/kg body weight intraperitoneal daily, 35 days.
Experimental: Three month-old male wild type mice were used in the experiment. The treatment lasted for a total of 35 days. […] For all abovementioned groups, Motor skills were assessed on the 36th to 40th days after compound administration. Beam traversal test is a method commonly used in academia to detect movement coordination in animals with Parkinson's disease. […] The mice were first trained for 2 consecutive days, and taught to trained to traverse the length of the beam. On the day of the test, a mesh grid (1 cm squares) of corresponding width was placed over the beam surface leaving a ˜1 cm space between the grid and the beam surface. Animals were then videotaped while traversing the grid-surfaced beam for a total of five trials. An error was counted when, during a forward movement, a forelimb or hindlimb slipped through the grid. The number of errors made per step (referred to as “error per step scores”) was counted. An analysis of variance (ANOVA) and Dunnett post hoc comparison test are used to compare the significance of the differences between different groups of data. The difference is significant with P<0.05.
In a further series the test system is db−/db− mice. Kind of series: Diabetic peripheral neuropathy model, Von Frey threshold, sciatic nerve ROS and MDA. Particulars: in food 10 mg/kg body weight/day (pregabalin 30 mg/kg body weight/day). It counts as in vivo, mouse. On the procedure: Male 5-6 week-old male db^−/db^− mice were used in the experiment, and their normoglycemic heterozygous littermates were used as controls. db^−/db^− is a commonly used type 2 diabetes animal model. The compounds was dissolved in DMSO and mixed into food pellets. The animals were given ad libitum access to the pellets, beginning from 8 to 9 weeks of age for 10 weeks. […] The method for detecting mice hindlimb hypersensitivity is performed using Von Frey filaments. […] The difference is significant with P<0.05. The increase of mitochondrial reactive oxygen species (ROS) in the sciatic nerve of mice, which in turn leads to the increase of intracellular malondialdehyde (MDA), is the etiology of this type of neuropathic pain. The efficacy of compound to treat the root cause of the disease was evaluated by measurement of the levels of MDA and mitochondrial ROS from the sciatic nerves.

The test system of another series is APP/PS1 transgenic mice. Description: Alzheimer's disease model, eight-arm radial water maze and brain gene expression. It counts as in vivo, mouse. Particulars: 30 days in food, 10 mg/kg body weight/day (donepezil 3 mg/kg body weight/day), 5 on the first day. An excerpt:
A common indicator used in academia in memory and dementia experiments is the number of errors in the water maze (reference memory). More errors mean poorer memory. On the last 3 days of dosing, eight-arm radial water maze was used by experimenters who were blind to drug treatment. As a classic experimental instrument, to detect slight deficits in learning and memory, the eight-arm water maze is more sensitive than not only Morris maze, but also Six-arm radial water maze. For details, see reference 8: Alamed J et al. Two-day radial-arm water maze learning and memory task; robust resolution of amyloid-related memory deficits in transgenic mice [J]. […] This experiment uses an eight-arm water maze built in accordance with the above literature. The eight-arm water maze is placed in a basin with an interior diameter of 102 cm. Each arm measures 30 cm long, 14.5 cm wide, and 40 cm high. Escape platform is located at the end of one of the arms. In the reference memory version of the task described here, the goal arm is held constant for all trials, with a different start arm on successive trials. On day one, mice received 12 trials, with trials alternating between visible and hidden platform. On day 2 and 3, mice received 12 additional trials but the platform was kept hidden throughout the trials. Entry into an incorrect arm was scored as a spatial reference error. Errors were averaged into three trial blocks, with four blocks per day, e.g., the first block (the 1st to 3rd trial), the second block (the 4th to 6th trial), and so on. […]. The line charts were made with the number of blocks as the abscissa and the average of the number of errors as the ordinate. At the end of the experiments, the cerebral cortex and hippocampus of the mice were removed, RNA was extracted, and the expression of many genes was analyzed by semi-quantitative RT-PCR. […] The difference is significant with P<0.05.

Where [4] appears, read: compared with healthy control group.

In general, AUC(0-t) refers to the area under the concentration-time curve up to a stated or last time point. A lower AUC(0-t) goes with less exposure. In general, EC50 refers to the midpoint of the concentration-response curve. Take `CN(CCOc1ccc(CC2SC(=O)NC2=O)cc1)c1ccccn1` (stereo not drawn) [rosiglitazone, reference compound]: the AUC(0-t) was 0.774 µg·h/mL in series [1] (AUC0-6 h) and 1.93 µg·h/mL in series [1] (AUC0-24 h). In the series on HEK 293T cells, the “inhibition of active oxygen production (up to), compared to the DMSO control” value is on record as “up to 58%”. Also, the values for the concentration giving a half-maximal response (EC50) with HEK 293T cells and in the series with klotho gene promoter were 2.5 µM and 9.7 µM, respectively.
On to `CCc1cccc(CC/C=C/c2ccc3c(c2)C(=O)CC3)c1` [ELB001203, 6-((1E)-4-(3-ethylphenyl)but-1-en-1-yl)-2,3-dihydro-1H-inden-1-one], for which the results for the EC50 on PPARγ, in the series on HEK 293T cells and in the series with klotho gene promoter were below 6.4 µM, below 3 µM and below 9.7 µM, respectively.
On to `CCc1ccc(CCOc2ccc(CC3SC(=O)NC3=O)cc2)nc1` (stereo not drawn) [pioglitazone, reference compound], for which, in series [1] (AUC0-6 h), the AUC(0-t) came to 1.51 µg·h/mL. Also, in series [1] (AUC0-24 h), the AUC(0-t) came to 3.52 µg·h/mL. Further, the “time to maximum brain concentration (Tmax)” value in series [1] (rat brain, 10 mg/kg intraperitoneal, single injection) was determined as 1 h. In the series on HEK 293T cells, the “inhibition of active oxygen production (up to), compared to the DMSO control” value is given as “up to 42%” and the EC50 is 0.7 µM. For the same compound, in series [2] (oral), the “minimum effective anti-allodynic dose” value is 300 mg/kg. Also, the “mechanical threshold 2 hours after oral administration” value in series [2] (oral 300 mg/kg body weight, Von Frey) stood at 4.9 ± 0.9 g.
As for `CCc1ccc(CCCCc2ccc3c(c2)C(=O)CC3)cc1` [ELB00825, 6-(4-(4-ethylphenyl)butyl)-2,3-dihydro-1H-inden-1-one], the “number of errors per step in beam traversal test compared with disease control group” value in series [3] is “significantly lower”. For the same compound, the EC50 in the series with HEK 293T cells is below 10 µM. In addition, in the series on db−/db− mice (setting [4]), the “level of MDA in the sciatic nerve after 10 week treatment” value is reported as “reduced” and the “level of mitochondrial ROS in the sciatic nerve after 10 week treatment” value is “reduced”. Further, the “mechanical pain threshold after 10 week treatment” value in the series with db−/db− mice (compared with normal control group) is reported as “significantly improved”. Further, in the series on APP/PS1 transgenic mice, the “number of errors in water maze on the third day” value is recorded as “comparable to that of ELB00824”.
